Where a chain is given by its changes, count along the chain named.
What was measured:
Dab2 SBP [1] = target: T1, Dab2 SBP (Homo sapiens, UniProt P98082); test: SPR, L1 sensorchip, sulfatide liposomes captured; type: binding; conditions: apparent KD; peptide 1-80 µM over 100-nm DPPC:DPPE:cholesterol:sulfatide (1:1:1:4) liposomes; pH 7.4, 100 mM NaCl, room temperature; brain sulfatides of mixed acyl chains
T1 construct: pGEX6P1; vector residues GPLGS remain at N-terminus of cleaved peptide
T1 sequence (P98082 24-58): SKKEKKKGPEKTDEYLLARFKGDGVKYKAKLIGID

Dab2 SBP [2] = target: T2, Dab2 SBP (Homo sapiens, UniProt P98082, Y38A); test: SPR, L1 sensorchip, sulfatide liposomes captured; type: binding; conditions: apparent KD; peptide 1-80 µM over 100-nm DPPC:DPPE:cholesterol:sulfatide (1:1:1:4) liposomes; pH 7.4, 100 mM NaCl, room temperature; brain sulfatides of mixed acyl chains
T2 construct: pGEX6P1; vector residues GPLGS remain at N-terminus of cleaved peptide
T2 sequence (P98082 24-58 Y38A): T1 sequence (P98082 24-58) with Y15A

Q: For sulfatide, which Kd (Dab2 SBP [1]) is on record?
A: 49.8 ± 5.4 µM

Q: And the Kd (Dab2 SBP [2])?
A: 77 ± 6.6 µM

— publication PMC7421900, “Structural, in silico, and functional analysis of a Disabled-2-derived peptide for recognition of sulfatides” (Scientific Reports, 2020)
